Results reported in ChEMBL document CHEMBL1201862, “PubChem BioAssay data set” (2004).
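Grown in 96-well plates, cells were treated for 48 hours with each compound at five concentrations. Insufficient inhibition: endpoint recorded as highest concentration tested. The concentration for 50% growth inhibition is given as GI50.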 Activity calls are given as the source filed them. No stated cut-off is given here; in the data, active = GI50 up to about 1.1 µM and inactive = higher.

Legend:
Experiment in all cases: DTP human tumour cell line panel, 48 h
MOLT-4 = test system: MOLT-4
CAKI-1 = test system: CAKI-1
ACHN = test system: ACHN
HCT-15 = test system: HCT-15
KM12 = test system: KM12
786-0 = test system: 786-0
T47D = test system: T47D
OVCAR-3 = test system: OVCAR-3
SK-MEL-5 = test system: SK-MEL-5
HL-60 = test system: HL-60
EKVX = test system: EKVX
K562 = test system: K562
PC-3 = test system: PC-3
UACC-62 = test system: UACC-62
Malme-3M = test system: Malme-3M
DU-145 = test system: DU-145
SK-OV-3 = test system: SK-OV-3
MDA-N = test system: MDA-N
MCF7 = test system: MCF7
Hs-578T = test system: Hs-578T

Measured: GI50

COc1nncc2[nH]c(-c3ccccc3)cc12
active: MOLT-4 0.0652 µM
inactive: CAKI-1 96.8 µM | ACHN 54 µM | KM12 > 100 µM | 786-0 70 µM | T47D 40.9 µM | OVCAR-3 83.2 µM | SK-MEL-5 67.8 µM | HL-60 30.9 µM | EKVX 29.4 µM | K562 56.6 µM | PC-3 44.7 µM | UACC-62 42.3 µM | Malme-3M > 100 µM | DU-145 90.4 µM | SK-OV-3 > 100 µM | MDA-N 62.4 µM | MCF7 49.7 µM | Hs-578T 44 µM
53 µM: HCT-15
